Consider 28 compounds from US8895585B2, “Nicotinamide derivative or salt thereof” (FUJIFILM Corporation, priority 2010, dated 2014).

The structures appear in SMILES notation. Where two headings read alike, the source gives them in different places.

The subject of one assay is THP-1 cells. The assay is described as follows: TNFα generation assay. It counts as cell-based, human. As to conditions: Table 22, read-out: IC50 in TNFα generation assay. On the procedure:
THP-1 cells (2×10^5 cells/ml), which were human monocytoid cells, were cultured in the presence of 10 ng/ml IFN-γ (Roche) for 2 days, so that the cells were induced to differentiate into macrophage-like cells. The differentiation-induced THP-1 cells were recovered, and the cells (1×10^6 cell/ml) were then allowed to react with a predetermined concentration of test compound at room temperature for 30 minutes. On the other hand, 100 μl of human IgG (10 μg/ml, SIGMA-ALDRICH) diluted with PBS was added to a 96-well plate, and it was then incubated at room temperature overnight. Thereafter, the resultant was washed with PBS twice to produce a human IgG-coated plate. Subsequently, a cell solution that contained a compound was inoculated on the human IgG-coated plate (5×10^4 cells/well), and it was then cultured for 7 hours. Thereafter, the cultured solution was recovered, and the amount of TNFα secreted into the culture solution was then measured by the ELISA method (Roche/R & D Systems) or the AlphaLISA method (PerkinElmer).

Assay [1] deals with T1, glutathione S-transferase (GST)-fused full-length human Syk protein (Homo sapiens, UniProt P43405).
T1 construct: (GST)-fused full-length human Syk protein; GST (glutathione S-transferase); purchased Carna Biosciences
The assay is described as follows: Syk enzyme assay. It counts as biochemical. Particulars: Syk enzyme assay, Test Example 1; read-out: IC50 of Syk-inhibitory activity. The procedure, abridged: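 Baculovirus-expressed enzyme (1.2 ng) was preincubated with compound in HEPES pH 7.0/MgCl2/DTT buffer, 2 min shaking then 13 min at room temperature. Biotin-EDPDYEWPSA-NH2 (0.4 μM final) and ATP (27 μM final) were added for 40 min at room temperature. EDTA stop, streptavidin-XL/PT66-K TR-FRET at 615/665 nm gave IC50.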

The mark [2] stands for this setting: Homo sapiens, THP-1, THP-1 cells.

Consider `C[C@H](N)[C@@H](CC1CC1)Nc1nc(Nc2cncc3ccccc23)c(C(N)=O)cc1F` [Example 006-354, 6-(((2R,3S)-3-amino-1-cyclopropylbutan-2-yl)amino)-5-fluoro-2-((isoquinolin-4-yl)amino)nicotinamide], for which the IC50 in the assay on THP-1 cells (setting [2]) is 65 to 130 nM; in assay [1] it was under 10 nM.
For `CCOc1ncc(Nc2nc(N[C@@H]3CCCC[C@@H]3N)c(F)cc2C(N)=O)cc1F` [Example 006-572, 6-(((1R,2S)-2-aminocyclohexyl)amino)-2-((6-ethoxy-5-fluoropyridin-3-yl)amino)-5-fluoronicotinamide] the same measures were 130 to 200 nM and 10 to 50 nM.
For `COc1ccc(F)c(-c2cc(Nc3nc(NC4CCCCC4N)c(F)cc3C(N)=O)ccn2)c1` (centres unmarked) [Example 002-141] the same measures were 65 to 130 nM and under 10 nM.
For `CCC[C@@H](Nc1nc(Nc2ccc3c(cnn3CC)c2)c(C(N)=O)cc1F)[C@H](C)N` [Example 006-237, 6-(((2S,3R)-2-aminohexan-3-yl)amino)-2-((1-ethyl-1H-indazol-5-yl)amino)-5-fluoronicotinamide] the same measures were under 65 nM and under 10 nM.
Turning to `CCc1ncc(Nc2nc(N[C@@H]3CCCC[C@@H]3N)c(F)cc2C(N)=O)cc1F` [Example 006-554, 6-(((1R,2S)-2-aminocyclohexyl)amino)-2-((6-ethyl-5-fluoropyridin-3-yl)amino)-5-fluoronicotinamide], the IC50 fell in the range of 130 to 200 nM in the assay on THP-1 cells (setting [2]) and 10 to 50 nM in assay [1].
For the compound `CCc1nn(CCOC)c2ccc(Nc3nc(N[C@@H]4CCCC[C@@H]4N)c(F)cc3C(N)=O)cc12` [Example 006-453, 6-(((1R,2S)-2-aminocyclohexyl)amino)-2-((3-ethyl-1-(2-methoxyethyl)-1H-indazol-5-yl)amino)-5-fluoronicotinamide], the figures for the IC50 (in the assay with THP-1 cells (setting [2]); in assay [1]) were under 65 nM and under 10 nM, respectively.
Consider `C[C@H](N)[C@@H](C)Nc1nc(Nc2cncc(-c3ccccc3)c2)c(C(N)=O)cc1F` (racemic) [Example 006-195, 6-(((2R,3S)-3-aminobutan-2-yl)amino)-5-fluoro-2-((5-phenylpyridin-3-yl)amino)nicotinamide 6-(((2S,3R)-3-aminobutan-2-yl)amino)-5-fluoro-2-((5-phenylpyridin-3-yl)amino)-nicotinamide], for which the IC50 with THP-1 cells (setting [2]) was under 65 nM; in assay [1], under 10 nM.
For `NC(=O)c1cc(F)c(NC2CCCCC2N)nc1Nc1ccnc(-c2ccco2)c1` (centres unmarked) [Example 002-053] the same measures were 65 to 130 nM and under 10 nM.
For `CCOc1cc(Nc2nc(N[C@@H](CN)CC(C)C)c(F)cc2C(N)=O)ccn1` [Example 006-145, (R)-6-((1-amino-4-methylpentan-2-yl)amino)-2-((2-ethoxypyridin-4-yl)amino)-5-fluoronicotinamide] the same measures were 65 to 130 nM and under 10 nM.
For the compound `COCCOc1ncc(Nc2nc(N[C@@H]3CCCC[C@@H]3N)c(F)cc2C(N)=O)cc1F` [Example 006-552, 6-(((1R,2S)-2-aminocyclohexyl)amino)-5-fluoro-2-((5-fluoro-6-(2-methoxyethoxy)pyridin-3-yl)amino)nicotinamide], the IC50 fell in the range of 65 to 130 nM in the assay with THP-1 cells (setting [2]) and 10 to 50 nM in assay [1].
For `Cc1cc(Nc2nc(N[C@H](C3CC3)[C@H](C)N)c(F)cc2C(N)=O)cnc1C` [Example 006-434, 6-(((1R,2S)-2-amino-1-cyclopropylpropyl)amino)-2-((5,6-dimethylpyridin-3-yl)amino)-5-fluoronicotinamide] the same measures were under 65 nM and 50 to 100 nM.
For the compound `COc1ccc2cc(Nc3nc(N[C@@H]4CCCC[C@@H]4N)c(F)cc3C(N)=O)cnc2c1` [Example 006-172, 6-(((1R,2S)-2-aminocyclohexyl)amino)-5-fluoro-2-((7-methoxyquinolin-3-yl)amino)nicotinamide], the IC50 with THP-1 cells (THP-1 cells) is 65 to 130 nM; in assay [1], under 10 nM.
On to `NC(=O)c1cc(F)c(N[C@@H]2CCCC[C@@H]2N)nc1Nc1ccc2cnccc2c1` (relative stereo) [Example 004-163, 6-(cis-2-aminocyclohexylamino)-5-fluoro-2-((isoquinolin-6-yl)amino)nicotinamide], for which the IC50 in the assay with THP-1 cells (setting [2]) is under 65 nM; in assay [1], under 10 nM.
With `COCCOc1ncc(Nc2nc(N[C@@H]3CCCC[C@@H]3N)c(F)cc2C(N)=O)cc1C` [Example 006-498, 6-(((1R,2S)-2-aminocyclohexyl)amino)-5-fluoro-2-((6-(2-methoxyethoxy)-5-methylpyridin-3-yl)amino)nicotinamide], the values for the IC50 (in the assay with THP-1 cells (setting [2]); in assay [1]) were 65 to 130 nM and under 10 nM, respectively.
For `CC[C@@H](Nc1nc(Nc2ccnc(-c3ccc(OC)cc3)c2)c(C(N)=O)cc1F)[C@H](C)N` [Example 006-331, 6-(((2S,3R)-2-aminopentan-3-yl)amino)-5-fluoro-2-((2-(4-methoxyphenyl)pyridin-4-yl)amino)nicotinamide] the same measures were 65 to 130 nM and under 10 nM.
For `Cn1ncc2cc(Nc3nc(N[C@@H]4CCCC[C@@H]4N)c(F)cc3C(N)=O)ccc21` [Example 37-5, 6-((1R,2S)-2-aminocyclohexylamino)-5-fluoro-2-((1-methyl-1H-indazol-5-yl)amino)-nicotinamide] the same measures were 65 to 130 nM and under 10 nM.
For `CC[C@@H](Nc1nc(Nc2ccnc(-c3ccccc3F)c2)c(C(N)=O)cc1F)[C@H](C)N` [Example 006-329, 6-(((2S,3R)-2-aminopentan-3-yl)amino)-5-fluoro-2-((2-(2-fluorophenyl)pyridin-4-yl)amino)nicotinamide] the same measures were under 65 nM and under 10 nM.
In the case of `COCCOc1cc(Nc2nc(NC3CCCCC3N)c(F)cc2C(N)=O)ccn1` (centres unmarked) [Example 002-066], the IC50 is 130 to 200 nM with THP-1 cells (setting [2]) and under 10 nM in assay [1].
For `NC(=O)c1cc(F)c(N[C@@H]2CCCC[C@@H]2N)nc1Nc1cccc(-n2ccnn2)c1` (relative stereo) [Example 006-122, 2-(3-(1H-1,2,3-triazol-1-yl)phenylamino)-6-((cis-2-aminocyclohexyl)amino)-5-fluoronicotinamide] the same measures were 65 to 130 nM and under 10 nM.
As to `CC[C@@H](Nc1nc(Nc2ccc3c(c2)c(C)nn3CC(F)F)c(C(N)=O)cc1F)[C@H](C)N` [Example 006-526, 6-(((2S,3R)-2-aminopentan-3-yl)amino)-2-((1-(2,2-difluoroethyl)-3-methyl-1H-indazol-5-yl)amino)-5-fluoronicotinamide], the IC50 in the assay with THP-1 cells (setting [2]) is under 65 nM; in assay [1], under 10 nM.
For `CCC[C@@H](Nc1nc(Nc2cncc(Cl)c2)c(C(N)=O)cc1F)[C@H](C)N` [Example 006-297, 6-(((2S,3R)-2-aminohexan-3-yl)amino)-2-((5-chloropyridin-3-yl)amino)-5-fluoronicotinamide] the same measures were 65 to 130 nM and under 10 nM.
As to `COc1ccc(F)c(-c2cncc(Nc3nc(N[C@@H]4CCCC[C@@H]4N)c(F)cc3C(N)=O)c2)c1` (relative stereo) [Example 004-199, 6-(cis-2-aminocyclohexylamino)-5-fluoro-2-((5-(2-fluoro-5-methoxyphenyl)pyridin-3-yl)amino)nicotinamide], the IC50 was 130 to 200 nM with THP-1 cells (setting [2]) and under 10 nM in assay [1].
For `COc1cccc(-c2cncc(Nc3nc(N[C@@H]4CCCC[C@@H]4N)c(F)cc3C(N)=O)c2)c1F` (relative stereo) [Example 004-197, 6-(cis-2-aminocyclohexylamino)-5-fluoro-2-((5-(2-fluoro-3-methoxyphenyl)pyridin-3-yl)amino)nicotinamide] the same measures were 65 to 130 nM and under 10 nM.
For `CC(C)C[C@H](CN)Nc1nc(Nc2ccc3c(cnn3CCF)c2)c(C(N)=O)cc1F` [Example 006-415, (R)-6-((1-amino-4-methylpentan-2-yl)amino)-5-fluoro-2-((1-(2-fluoroethyl)-1H-indazol-5-yl)amino)nicotinamide] the same measures were 65 to 130 nM and under 10 nM.
For `CCC[C@@H](Nc1nc(Nc2cncc(-c3cc(OC)ccc3F)c2)c(C(N)=O)cc1F)[C@H](C)N` [Example 006-288] the same measures were 130 to 200 nM and under 10 nM.
Regarding `NC(=O)c1cc(F)c(N[C@@H]2CCCC[C@@H]2N)nc1Nc1ccnc2c1ccn2CCN1CCCCC1` [Example 004-029], the IC50 was 130 to 200 nM in the assay on THP-1 cells (setting [2]) and under 10 nM in assay [1].
For `CCC[C@@H](Nc1nc(Nc2ccc3scnc3c2)c(C(N)=O)cc1F)[C@H](C)N` [Example 006-308, 6-(((2S,3R)-2-aminohexan-3-yl)amino)-2-(benzo[d]thiazol-5-ylamino)-5-fluoronicotinamide] the same measures were 65 to 130 nM and under 10 nM.
For `CCC[C@@H](Nc1nc(Nc2ccc3nc(C)c(C)nc3c2)c(C(N)=O)cc1F)[C@H](C)N` [Example 006-306, 6-(((2S,3R)-2-aminohexan-3-yl)amino)-2-((2,3-dimethylquinoxalin-6-yl)amino)-5-fluoronicotinamide], the figures for the IC50 (with THP-1 cells (setting [2]); in assay [1]) were 65 to 130 nM and under 10 nM, respectively.
